# In US9340517B2, “Methods of modulating the activity of the MC5 receptor and treatment of conditions related to this receptor” (Mimetica PTY LTD, priority 2008, dated 2016):
# Target: human MC5R (Homo sapiens (Human), UniProt P33032)
# Assay: Human MC5R radioligand binding assay ([125I] NDP-MSH displacement, membranes)
# Details: not given
# Protocol: Assessments of compound binding to human MC5R (hMC5R)) by displacement of an ^125I-labeled NDP-MSH receptor ligand peptide were performed essentially as described in the data sheets produced by Perkin Elmer to accompany their frozen hMC5R membranes (Perkin Elmer catalog number RBXMC5M400UA).
# Na^125I (0.5 mCi, 17.4 Ci/mg) was added to 50 μL sodium phosphate (50 mM, pH 7.4) in an eppendorf tube precoated with IODOGEN. After incubation for 10 mins the phosphate buffer containing the iodine was added to NDP-MSH (10 ul at 1 mg/mL) in a separate eppendorf tube. This was incubated for a further 10 mins. The iodinated NDP-MSH was purified by HPLC on a Zorbax SB 300 column using solvent A: 0.05% TFA and solvent B: 90% acetonitrile 0.045% TFA with a linear gradient, 0-67% B over 60 mins.
# Perkin Elmer frozen hMC5 membranes: catalog number RBXMC5M400UA, 0.4 mL/vial; 400 microassays/vial, 0.78 mg/mL protein concentration
# Vials of frozen membranes were thawed rapidly immediately before use, diluted with binding buffer and vortexed. Resuspended membranes were kept on ice until they were added to the wells of the plate.
# Assays were performed in 96 well polypropylene plates. […] This was incubated for 1 hr at 37° C.
# Chain of human MC5R (P33032 whole entry): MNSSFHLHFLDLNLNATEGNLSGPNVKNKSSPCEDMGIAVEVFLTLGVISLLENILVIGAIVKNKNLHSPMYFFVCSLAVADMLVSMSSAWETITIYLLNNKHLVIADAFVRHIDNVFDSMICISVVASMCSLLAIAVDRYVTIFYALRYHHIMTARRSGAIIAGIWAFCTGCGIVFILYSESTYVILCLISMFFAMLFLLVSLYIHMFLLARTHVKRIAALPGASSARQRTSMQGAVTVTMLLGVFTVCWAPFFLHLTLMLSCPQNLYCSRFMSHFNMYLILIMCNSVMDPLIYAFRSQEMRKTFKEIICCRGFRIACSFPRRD
row,IC50 [nM],SMILES
1,< 1000,"O=C(NCC1CCN(CC(c2ccccc2)c2ccccc2)C(=O)C(C2CCNCC2)N1)c1ccc2ccccc2c1 (racemic) [Compound 197, N-((1-(2,2-diphenylethyl)-2-oxo-3-(piperidin-4-yl)-1,4-diazepan-5-yl)methyl)-2-naphthamide]"
2,< 1000,"O=C(NCC1CCN(CC(c2ccccc2)c2ccccc2)C(=O)C(CC2CCNCC2)N1)c1ccc2ccccc2c1 (racemic) [Compound 198, N-((1-(2,2-diphenylethyl)-2-oxo-3-(piperidin-4-ylmethyl)-1,4-diazepan-5-yl)methyl)-2-naphthamide]"
3,< 1000,"CC[C@H](CN1CC[C@@H](CNC(=O)Cc2ccc(Cl)cc2Cl)N[C@@H](CCN2CCCCC2)C1=O)c1ccccc1 [Compound 540, 2-(2,4-dichlorophenyl)-N-(((3S,5S)-2-oxo-1-((S)-2-phenylbutyl)-3-(2-(piperidin-1-yl)ethyl)-1,4-diazepan-5-yl)methyl)acetamide]"
4,< 100,"CC[C@H](CN1CC[C@@H](CNC(=O)c2ccc3cc(Cl)ccc3c2)N[C@H](CCN2CCCCC2)C1=O)c1ccccc1 [Compound 582, 6-chloro-N-(((3R,5S)-2-oxo-1-((S)-2-phenylbutyl)-3-(2-(piperidin-1-yl)ethyl)-1,4-diazepan-5-yl)methyl)-2-naphthamide]"
5,< 1000,"CC[C@@H](CN1CC[C@@H](CNC(=O)c2ccc3cc(Cl)ccc3c2)N[C@H](CCN2CCCCC2)C1=O)c1ccccc1 [Compound 584, 6-chloro-N-(((3R,5S)-2-oxo-1-((R)-2-phenylbutyl)-3-(2-(piperidin-1-yl)ethyl)-1,4-diazepan-5-yl)methyl)-2-naphthamide]"

# Same assay, conditions: hMC5R binding assay as in Example 102; compounds tested as trifluoroacetate or hydrochloride salts, or as free base
row,IC50 [nM],SMILES
1,< 100,"N=C(N)NCCC[C@@H]1N[C@H](CNC(=O)/C=C/c2ccccc2)CCN(CC(c2ccccc2)c2ccccc2)C1=O [Compound 153, N-(((3S,5S)-1-(2,2-diphenylethyl)-3-(3-guanidinopropyl)-2-oxo-1,4-diazepan-5-yl)methyl)cinnamamide]"
2,< 1000,"NCCC[C@@H]1N[C@H](CNC(=O)/C=C/c2ccccc2)CCN(CC(c2ccccc2)c2ccccc2)C1=O [Compound 213, N-(((3S,5S)-3-(3-aminopropyl)-1-(2,2-diphenylethyl)-2-oxo-1,4-diazepan-5-yl)methyl)cinnamamide]"
3,< 100,"O=C(/C=C/c1ccccc1)NC[C@@H]1CCN(CC(c2ccccc2)c2ccccc2)C(=O)[C@H](CCCN2CCCCC2)N1 [Compound 269, N-(((3S,5S)-1-(2,2-diphenylethyl)-2-oxo-3-(3-(piperidin-1-yl)propyl)-1,4-diazepan-5-yl)methyl)cinnamamide]"
4,< 1000,"NCC[C@@H]1N[C@H](CNC(=O)/C=C/c2ccccc2)CCN(CC(c2ccccc2)c2ccccc2)C1=O [Compound 282, N-(((3S,5S)-3-(2-aminoethyl)-1-(2,2-diphenylethyl)-2-oxo-1,4-diazepan-5-yl)methyl)cinnamamide]"
5,< 1000,"Nc1ccccc1C[C@H]1C(=O)N(CC(c2ccccc2)c2ccccc2)CC[C@H]2CN(C(=O)/C=C/c3ccc(Cl)cc3)CN21 [Compound 453, (5S,9aS)-5-((2-aminobenzyl)-2-(E)-3-(4-chlorophenyl)acryloyl)-7-(2,2-diphenylethyl)hexahydro-1H-imidazo[1,5-d][1,4]diazepin-6(5H)-one]"

# Same assay, conditions: hMC5R binding assay as in Example 102; compounds tested as trifluoroacetate or hydrochloride salts, or free base
row,SMILES,IC50 [nM]
1,O=C(NC[C@@H]1CCN(Cc2cc(Cl)cc(Cl)c2)C(=O)[C@H](CCN2CCOCC2)N1)c1ccc2cc(Cl)ccc2c1 [Compound 555],< 100
2,O=C(NC[C@@H]1CCN(Cc2cc(Cl)cc(Cl)c2)C(=O)[C@H](CCN2CCOCC2)N1)c1ccc(Cl)c(Cl)c1 [Compound 556],< 100
3,COc1ccc2cc(C(=O)NC[C@@H]3CCN(Cc4cc(Cl)cc(Cl)c4)C(=O)[C@H](CCN4CCCCC4)N3)ccc2c1 [Compound 568],< 100

# Tested on: not given
# Assay: not given
# Details: oral, after 8-12 weeks of therapy; cited from earlier work
row,SMILES,reduction of sebum excretion
1,"CC1=C(/C=C/C(C)=C/C=C/C(C)=C\C(=O)O)C(C)(C)CCC1 [isotretinoin, 13-cis-retinoic acid]",up to 90%

# Same assay, conditions: oral, by 2 weeks; cited from earlier work
row,SMILES,reduction of sebum excretion
1,"CC1=C(/C=C/C(C)=C/C=C/C(C)=C\C(=O)O)C(C)(C)CCC1 [isotretinoin, 13-cis-retinoic acid]",60-70%
